Measurements as given in patent US6906107B2, “Use of cyclohexenone derivatives for the manufacture of a medicament in the treatment of dysuria” (Meiji Dairies Corporation, priority 2001, dated 2005).

What was measured:
[1] = system: STZ-administered rat; assay: Test 1: maximum quantity excreted by single urination, metabolic cage, 24 hours; assay type: in vivo; settings: STZ 65 mg/kg i.p. rat; Compound 4 i.p. 8 mg/kg daily for 8 weeks; mean ± S.E.; p < 0.05 relative to STZ-administered group
Experimental: Test 1 (Maximum Quantity Excreted by Single Urination)
To a rat, 65 mg/kg of streptozotocin (STZ) was administered intraperitoneally. After intraperitoneal administration of Compound 4, which had been obtained in Preparation Example 4, at a daily dose of 8 mg/kg for 8 weeks from two days after administration of STZ, urination pattern such as urination frequency and urination amount was recorded for 24 hours at 2.5-min intervals by using a metabolic cage.

[2] = system: STZ-administered rat; assay: Test 2: bladder capacity and urination efficiency from intravesical pressure under anesthesia; assay type: in vivo; settings: Compound 4 i.p. 8 mg/kg daily for 8 weeks, mean ± S.E., p < 0.05 relative to STZ-administered group
Experimental: Test 2 (Bladder Capacity and Urination Efficiency)
In a similar manner to Test 1, Compound 4 obtained in Preparation Example 4 was administered intraperitoneally to a rat at a daily dose of 8 mg/kg for 8 weeks two days after administration of STZ. The intravesical pressure was measured under anesthesia. From the results, the bladder capacity and urination efficiency were determined.
Urination efficiency (%)=100×excreted amount/bladder capacity

[3] = system: bladder smooth muscle; assay: Test 3: contractive force of extracted bladder smooth muscle after ischemia-reperfusion of abdominal aorta; assay type: in vivo, rat; settings: for Contractive force (contraction by carbachol) / Contractive force (contraction by concentrated potassium chloride): 30 minutes ischemia, 30 minutes reperfusion; for Contractive force (contraction by concentrated potassium chloride): potassium chloride 100 mM
Experimental: Test 3 ([…]) Compound 4 obtained in Preparation Example 4 was administered intraperitoneally to a rat immediately before the ischemia at a dose of 0.5, 2.0 and 8.0 mg/kg, and the rat was anesthetized by use of pentobarbital. Following 30 minutes ischemia of abdominal aorta of the rats, the abdominal aorta was subjected to perfusion for 30 minutes. Each bladder was then extracted and fixed in organbath filled with Krebs-Henseleit nutritive solution. By the use of TB-612T transducer (product of Nihonkoden), contractive force of bladder smooth muscle due to carbachol or concentrated potassium chloride (100 mM) was measured.

[4] = 0.5 mg/kg i.p. immediately before ischemia
[5] = 2.0 mg/kg i.p. immediately before ischemia
[6] = 8.0 mg/kg i.p. immediately before ischemia

Compound: CC1=C(CCCCCCCCCCCCCCCO)C(C)(C)CCC1=O [Compound 4, 3-(15-Hydroxypentadecyl)-2,4,4-trimethyl-2-cyclohexen-1-one]
- Maximum amount excreted by single urination [1]: 3.71 ± 0.26 mL
- Urination efficiency ([2]; 100×excreted amount/bladder capacity): 75.0±6.1%
- Bladder capacity ([2]; urination-inducing bladder capacity): 0.54 ± 0.07 mL
- Contractive force (contraction by carbachol) [3, 4]: 4.5 ± 0.5 g/mm^2
- Contractive force (contraction by concentrated potassium chloride) [3, 4]: 3.0 ± 0.4 g/mm^2
- Contractive force (contraction by carbachol) [3, 5]: 5.4 ± 0.4 g/mm^2
- Contractive force (contraction by concentrated potassium chloride) [3, 5]: 3.9 ± 0.3 g/mm^2
- Contractive force (contraction by carbachol) [3, 6]: 6.5 ± 0.5 g/mm^2
- Contractive force (contraction by concentrated potassium chloride) [3, 6]: 3.9 ± 0.4 g/mm^2
- Effect on contraction of bladder smooth muscle (in words) ([3]; 0.5, 2.0 and 8.0 mg/kg i.p., summary of Tables 3 and 4): enhances contraction of bladder smooth muscle depending on its dose
